# Data as given in paper PMC7725824, “Fused isoselenazolium salts suppress breast cancer cell growth by dramatic increase in pyruvate-dependent mitochondrial ROS production” (Scientific Reports, 2020).
# Tests used:
# permeabilized 4T1 cells = assay: High-resolution fluorespirometry (respiration and H2O2 flux); format: cell-based, mouse
# Procedure: High-resolution fluorespirometry was performed using an Oxygraph-2 k system (OROBOROS INSTRUMENTS, Austria). All experiments were performed at 37 °C in MiR05 medium (110 mM sucrose, 60 mM K-lactobionate, 0.5 mM EGTA, 3 mM MgCl2, 20 mM taurine, 10 mM KH2PO4, 20 mM HEPES, pH 7.1 at 30 °C, and 0.1% BSA essentially fatty acid free). The medium was reoxygenated when the oxygen concentration dropped to 80 µM. H2O2 flux was simultaneously measured with respirometry in the O2k-Fluorometer using the H2O2-sensitive probe Ampliflu Red (AmR) as described. The H2O2/O flux ratio [%] was calculated as the H2O2 flux/(0.5 O2 flux).
# In permeabilized 4T1 cells, pyruvate + malate (5 and 2 mM) or glutamate + malate (10 and 2 mM) were used to determine complex I (CI)-linked LEAK (L) respiration. ADP was added to a concentration of 5 mM to determine the oxidative phosphorylation-dependent respiration (OXPHOS state). Succinate (10 mM, complex II (CII) substrate) was then added to reconstitute convergent CI&II-linked respiration. Rotenone (0.5 µM, an inhibitor of complex I) and antimycin A (2.5 µM, an inhibitor of complex III) were added to determine the CII-linked OXPHOS capacity and residual oxygen consumption (ROX), respectively. Compound 6 was added to permeabilized cells after the addition of the respective substrates in the OXPHOS state (titration experiment) or in the LEAK state. In addition, compounds 3, 6 and 7 were tested at 1 µM in the OXPHOS coupling protocol in the LEAK state. The OXPHOS coupling efficiency was calculated as: 1-Resp.rateLEAKstate/Resp.rateOXPHOSstate
# The substrate-dependent flux control factor was calculated as: 1-Resp.ratebeforeadditionofrespectivesubstrate/Resp.rateafteradditionofrespectivesubstrate
# [1] = Cytotoxicity assay (MTT), MDCK; format: cell-based, Canine; settings: dog, MDCK cells, normal cell line, mean ± S.D., 3 experiments
# Procedure: (§1) MCF-7 (human breast adenocarcinoma, estrogen-positive) and 4T1 (mouse carcinoma), as breast cancer cell lines, and H9C2 (rat cardiomyoblasts), NIH 3T3 (mouse fibroblasts), HEKa (primary human epidermal keratinocytes), MDCK (Madin-Darby Canine Kidney) cells, and A7r5 (rat vascular smooth muscle cells), as normal cell lines, were obtained from the American Type Culture Collection [ATCC] collection for use in the current study. All cell lines were cultured in Dulbecco's modified Eagle's medium (DMEM) containing 10% fetal bovine serum (FBS) and 4 mM L-glutamine at 37 °C and 5% CO2.
# (§2) Cell viability was assessed by the addition of 3-(4,5-dimethylthiazol-2-yl)-2,5-diphenyltetrazolinium bromide (MTT). Briefly, cells were seeded (2–6 × 10^4 cells/ml) in 96-well plates and allowed to attach for 24 h. Solutions of test compounds were prepared and serially diluted to obtain the appropriate concentrations. The cells were treated with the test compounds at different concentrations (0.032–100 µM) and incubated for 48 h at 37 °C and 5% CO2. Then, the culture medium was removed, and medium containing 0.2 mg/ml MTT was added. After 3 h (37 °C, 5% CO2), the MTT-containing medium was removed, and 200 μl of dimethyl sulfoxide (DMSO) was immediately added to each sample. The absorbance was assessed at 540 nm using a Tecan multiplate reader Infinite 1000 (Austria). The half-maximal inhibitory concentration (IC50) of each compound was calculated using Graph Pad Prism 3.0.
# [2] = Cytotoxicity assay (MTT), A7r5; format: cell-based, rat; settings: rat, A7r5 cells (vascular smooth muscle cells), normal cell line, mean ± S.D., 3 experiments
# Procedure: as §1, §2
# [3] = Cytotoxicity assay (MTT), 3T3; format: cell-based, mouse; settings: mouse, NIH 3T3 cells (fibroblasts), normal cell line, mean ± S.D., 3 experiments
# Procedure: as §1, §2
# MCF-7 = assay: Cytotoxicity assay (MTT), MCF-7; format: cell-based, human; settings: Homo sapiens, MCF7; breast cancer cell line; MTT, 48 h; mean ± S.D., 3 experiments; read-out: Cytotoxicity, IC50, MCF-7
# Procedure: as §1, §2
# [4] = system: CL/DOPC (1:3) vesicles (cardiolipin); assay: Isothermal titration calorimetry with CL/DOPC liposomes; format: binding; settings: 25 °C
# Procedure: The obtained large multilamellar liposomes were sonicated in a bath-type sonicator (Cole Parmer Ultrasonic Cleaner 8891CPX (USA)) at room temperature for 30 min and then extruded (LiposoFast-Basic, Avestin) through a 100 nm polycarbonate filter 21 times. The quality of the resulting small unilamellar vesicles was determined by dynamic light scattering (DLS) (Zetasizer Nano ZSP, Malvern Panalytical Ltd., UK).
# The experiments were carried out using an isothermal titration calorimeter (MicroCal iTC200, Malvern Panalytical Ltd., UK). To carry out the titration, the injection syringe was filled with a solution of compound 6 (100 µM), and the reaction cell was filled with liposome dispersion (200 µM of total lipid). The experiments were performed at 25 and 37 °C with a stirring speed of 750 rpm. […] The data consisted of a series of heat flows as a function of time, which were collected automatically and analyzed by Origin 7 software (OriginLab Corporation, Northampton, USA, www.originlab.com, 2002). The changes in enthalpy (ΔH) due to the interactions between 6 and the liposome dispersions were recorded, and then stoichiometry (N), the association constant (KA), the dissociation constant (KD), entropy (ΔS) and the Gibbs free energy (ΔG) were calculated. The obtained sigmoidal titration curves were evaluated assuming independent saturable binding sites in the outer vesicle interface. […]
# [5] = 1 µM, pyruvate-dependent OXPHOS state
# [6] = titration, pyruvate + malate and glutamate + malate, OXPHOS
compound,measurement,setting,value
"OC1(c2[se][n+]3ccsc3c2Br)CCCCC1 [Compound 6, 3-bromo-2-(1-hydroxycyclohexyl)[1,2]selenazolo[2,3-b]thiazolium chloride]",H2O2 production and H2O2/O ratio in the CI&II-linked OXPHOS state,permeabilized 4T1 cells; 1 µM,significant increases
same,OXPHOS coupling efficiency,permeabilized 4T1 cells; 1 µM,significant decrease
same,respiration rate in the OXPHOS state with pyruvate and malate,permeabilized 4T1 cells; 1 µM,decreased
same,increase in H2O2/O ratio,permeabilized 4T1 cells; [5],2.8 fold
same,increase in H2O2 production,permeabilized 4T1 cells; [5],2.3 fold
same,mitochondrial function in the CII-linked OXPHOS state,permeabilized 4T1 cells; titration,no significant changes
same,H2O2 production with complex I (NADH-linked) substrates,permeabilized 4T1 cells; [6],increased
same,mitochondrial respiration rate with complex I (NADH-linked) substrates,permeabilized 4T1 cells; [6],inhibited
same,IC50 at 48 h,[1],6.58 ± 0.33 µM
same,IC50 at 48 h,[2],1.97 ± 0.27 µM
same,IC50 at 48 h,[3],7.4 ± 0.8 µM
same,IC50,MCF-7,3.23 ± 0.03 µM
same,ITC isoselenazolium cation–CL interaction,[4],decrease in enthalpy
